Laboratory results: ChEMBL document CHEMBL1201862, “PubChem BioAssay data set” (2004)
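These data come from cells grown in 96-well plates and exposed to compound for 48 hours at five concentrations. GI50 marks 50% less growth.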 Activity calls are given as the source filed them. Cut-off read from the data, not from the text of the source: active = GI50 up to about 1.1 µM and inactive = higher.

Assays:
Assay in all cases: growth of human tumour cells (NCI), 48 h
[1] = test system: LOX IMVI
[2] = test system: NCI-H226
[3] = test system: HCT-116
[4] = test system: A498
[5] = test system: UACC-257
[6] = test system: SNB-78
[7] = test system: HOP-62
[8] = test system: SNB-19
[9] = test system: SF-295
[10] = test system: A549
[11] = test system: OVCAR-8
[12] = test system: CAKI-1
[13] = test system: HL-60
[14] = test system: OVCAR-4
[15] = test system: SW-620
[16] = test system: HOP-92
[17] = test system: NCI-H522
[18] = test system: SNB-75
[19] = test system: TK-10
[20] = test system: OVCAR-3
[21] = test system: MOLT-4
[22] = test system: DMS-273
[23] = test system: KM12
[24] = test system: EKVX
[25] = test system: M14
[26] = test system: ACHN
[27] = test system: SK-OV-3
[28] = test system: HCC 2998
[29] = test system: RXF 631
[30] = test system: KM-20L2
[31] = test system: HT-29
[32] = test system: SN12C
[33] = test system: RXF 393
[34] = test system: 786-0
[35] = test system: CCRF-CEM
[36] = test system: UACC-62
[37] = test system: HCT-15
[38] = test system: SR
[39] = test system: OVCAR-5
[40] = test system: DLD-1
[41] = test system: SK-MEL-5
[42] = test system: SF-539
[43] = test system: Malme-3M
[44] = test system: RPMI-8226
[45] = test system: NCI-H460
[46] = test system: IGROV-1
[47] = test system: HOP-18
[48] = test system: U-251
[49] = test system: DMS-114
[50] = test system: UO-31
[51] = test system: LXFL 529
[52] = test system: SF-268
[53] = test system: SK-MEL-28
[54] = test system: M19-MEL
[55] = test system: COLO 205
[56] = test system: SK-MEL-2
[57] = test system: NCI-H23
[58] = test system: K562
[59] = test system: XF498

Measured: GI50

CCOC(=O)C1(C)CCC(C(C(=O)O)C(=O)O)CC1=O (stereo unspecified)
> 100 µM: [37]
inactive: [1] > 100 µM | [2] > 100 µM | [3] > 100 µM | [4] > 100 µM | [5] > 100 µM | [6] > 100 µM | [7] > 100 µM | [8] > 100 µM | [9] > 100 µM | [10] > 100 µM | [11] > 100 µM | [12] > 100 µM | [13] > 100 µM | [14] > 100 µM | [15] > 100 µM | [16] > 100 µM | [17] > 100 µM | [18] > 100 µM | [19] > 100 µM | [20] > 100 µM | [21] > 100 µM | [22] > 100 µM | [23] > 100 µM | [24] > 100 µM | [25] > 100 µM | [26] > 100 µM | [27] > 100 µM | [28] > 100 µM | [29] > 100 µM | [30] > 100 µM | [31] > 100 µM | [32] > 100 µM | [33] > 100 µM | [34] > 100 µM | [35] > 100 µM | [36] > 100 µM | [38] > 100 µM | [39] > 100 µM | [40] > 100 µM | [41] > 100 µM | [42] > 100 µM | [43] > 100 µM | [44] > 100 µM | [45] > 100 µM | [46] > 100 µM | [47] > 100 µM | [48] > 100 µM | [49] > 100 µM | [50] > 100 µM | [51] > 100 µM | [52] > 100 µM | [53] > 100 µM | [54] > 100 µM | [55] > 100 µM

Cc1cccc(NC(=O)c2c(N)[n+]([O-])c3ccccc3[n+]2[O-])c1
inactive: [2] 5.66 µM | [3] 7.69 µM | [4] 16.1 µM | [5] 11.3 µM | [6] 11.9 µM | [7] 17.1 µM | [8] 15.8 µM | [9] 10.9 µM | [10] 16.1 µM | [11] 10.2 µM | [12] 13.9 µM | [13] 8.73 µM | [14] 9.98 µM | [15] 8.38 µM | [16] 15.2 µM | [17] 6.01 µM | [18] 13 µM | [56] 7.76 µM | [20] 15.6 µM | [21] 4.89 µM | [22] 9.51 µM | [23] 14.9 µM | [24] 16.9 µM | [25] 12 µM | [26] 16.1 µM | [27] 21.1 µM | [29] 1.77 µM | [30] 16.6 µM | [57] 9.68 µM | [31] 13.7 µM | [32] 4.85 µM | [33] 4.03 µM | [34] 5.02 µM | [35] 4.68 µM | [38] 10.9 µM | [39] 26.7 µM | [40] 11.7 µM | [41] 5.53 µM | [42] 5.05 µM | [43] 12.7 µM | [45] 12.9 µM | [46] 5.11 µM | [47] 18.2 µM | [48] 1.78 µM | [50] 18.4 µM | [58] 5.68 µM | [51] 11 µM | [59] 11.4 µM | [52] 7.28 µM | [53] 8.05 µM | [54] 8.97 µM | [55] 13.3 µM

CCOC(=O)/C(C#N)=C(O)/C(=C\c1ccc(Br)cc1)NC(=O)c1ccccc1
inactive: [2] 30.4 µM | [3] 16.4 µM | [4] > 100 µM | [5] > 100 µM | [6] > 100 µM | [7] > 100 µM | [8] > 100 µM | [9] > 100 µM | [10] > 100 µM | [11] > 100 µM | [12] > 100 µM | [13] > 100 µM | [14] > 100 µM | [15] 19.2 µM | [16] > 100 µM | [18] > 100 µM | [19] > 100 µM | [20] > 100 µM | [21] > 100 µM | [22] > 100 µM | [23] > 100 µM | [24] > 100 µM | [25] > 100 µM | [26] > 100 µM | [27] > 100 µM | [28] > 100 µM | [29] > 100 µM | [30] > 100 µM | [57] > 100 µM | [31] > 100 µM | [32] > 100 µM | [34] > 100 µM | [35] > 100 µM | [36] > 100 µM | [39] > 100 µM | [40] > 100 µM | [41] > 100 µM | [42] > 100 µM | [43] > 100 µM | [44] 22.4 µM | [45] > 100 µM | [46] > 100 µM | [47] > 100 µM | [48] > 100 µM | [49] > 100 µM | [50] > 100 µM | [58] > 100 µM | [51] > 100 µM | [52] > 100 µM | [53] > 100 µM | [54] > 100 µM | [55] > 100 µM
37.4 µM: [37]

CCOc1cc2c(cc1OC)c[n+](C)c1c3cc(OC)c(OC)cc3ccc21
inactive: [1] 46.6 µM | [2] > 57.1 µM | [3] 49.1 µM | [4] 47.6 µM | [5] > 61.4 µM | [6] > 57 µM | [7] > 81.7 µM | [8] > 52.5 µM | [9] > 100 µM | [10] > 100 µM | [11] > 60.3 µM | [12] > 67.8 µM | [13] 17.2 µM | [14] > 100 µM | [15] 46.5 µM | [16] 27 µM | [17] > 52.1 µM | [19] 59.4 µM | [56] 33.3 µM | [20] > 100 µM | [21] > 81.3 µM | [22] 27.8 µM | [23] 72.4 µM | [24] > 100 µM | [25] > 100 µM | [26] > 100 µM | [27] > 100 µM | [28] > 100 µM | [29] 22.6 µM | [30] > 100 µM | [57] > 93.5 µM | [31] > 100 µM | [32] 77.4 µM | [33] 34 µM | [34] > 42.1 µM | [35] 35.9 µM | [36] > 91 µM | [38] 46.6 µM | [39] > 49.1 µM | [40] > 78.2 µM | [41] > 50.4 µM | [42] > 100 µM | [43] > 77.6 µM | [44] 40.7 µM | [45] > 73.6 µM | [46] > 66.5 µM | [47] > 48.6 µM | [48] > 33.4 µM | [49] 18.2 µM | [50] > 100 µM | [58] > 34.3 µM | [51] 27 µM | [52] > 93.3 µM | [53] > 64.1 µM | [54] > 56.1 µM | [55] 31.6 µM
> 75.2 µM: [37]

O=[N+]([O-])c1ccc(NC2OCC(O)C(O)C2O)cc1 (stereo unspecified)
> 100 µM: [37]
inactive: [1] > 100 µM | [2] > 100 µM | [4] > 100 µM | [5] > 100 µM | [6] > 100 µM | [7] > 100 µM | [8] > 100 µM | [9] > 100 µM | [10] > 100 µM | [11] > 100 µM | [12] > 100 µM | [14] > 100 µM | [15] > 100 µM | [16] > 100 µM | [17] > 100 µM | [18] > 100 µM | [19] > 100 µM | [56] > 100 µM | [20] > 100 µM | [21] > 100 µM | [22] > 100 µM | [23] > 100 µM | [24] > 100 µM | [25] > 100 µM | [26] > 100 µM | [27] > 100 µM | [28] > 100 µM | [29] > 100 µM | [30] > 100 µM | [57] > 100 µM | [31] > 100 µM | [32] > 100 µM | [33] 43 µM | [34] > 100 µM | [35] > 100 µM | [36] > 100 µM | [38] > 100 µM | [40] > 100 µM | [41] > 100 µM | [42] > 100 µM | [43] > 100 µM | [44] > 100 µM | [45] > 100 µM | [46] > 100 µM | [48] > 100 µM | [49] > 100 µM | [50] > 100 µM | [58] > 100 µM | [51] > 100 µM | [59] > 100 µM | [52] > 100 µM | [53] > 100 µM | [55] > 100 µM
